Test results taken from paper PMC3601661 (Steroids, 2012).
Like-named read-outs stand apart in the source and are kept apart here.

Tests used:
[1] = target: T1, progesterone receptor (PR) (Homo sapiens, UniProt P06401); test: PRE-luciferase reporter assay in T47D cells; type: cell-based; details: for PRE-luciferase Fold increase (10μM): compound 10 μM, over DMSO; for dose-dependent activation of PRE-luciferase: five increasing doses; for compound-induced PRE-luciferase activity in the presence of RU486: with 1 μM RU486, T47D cells
T1 sequence (P06401 679-933 limits assumed): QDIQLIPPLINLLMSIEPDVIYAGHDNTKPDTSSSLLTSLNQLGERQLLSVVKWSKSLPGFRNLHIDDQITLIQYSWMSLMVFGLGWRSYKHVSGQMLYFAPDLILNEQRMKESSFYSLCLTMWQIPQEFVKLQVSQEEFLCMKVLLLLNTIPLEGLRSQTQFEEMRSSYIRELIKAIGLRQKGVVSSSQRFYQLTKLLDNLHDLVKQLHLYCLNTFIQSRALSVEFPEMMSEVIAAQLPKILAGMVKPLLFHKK

[2] = target: T2, progesterone receptor ligand binding domain (PR-LBD-GST) (Homo sapiens, UniProt P06401); test: Progesterone receptor polarization competitive binding assay
T2 sequence (P06401 675-933): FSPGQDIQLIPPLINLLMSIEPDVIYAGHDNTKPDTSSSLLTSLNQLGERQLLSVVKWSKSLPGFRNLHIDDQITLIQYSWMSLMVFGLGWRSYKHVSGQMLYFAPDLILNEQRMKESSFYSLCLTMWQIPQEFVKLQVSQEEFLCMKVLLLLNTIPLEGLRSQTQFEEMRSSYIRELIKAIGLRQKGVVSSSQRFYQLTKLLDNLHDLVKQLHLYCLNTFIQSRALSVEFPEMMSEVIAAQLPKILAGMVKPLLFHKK

Sulforhodamine B = type: cell-based; details: human
[3] = target: T1, progesterone receptor (PR); test: PRE-luciferase in T47D cells in combination with P4; type: cell-based; details: 10 μM compound plus 100 nM P4, 24 h
ZBTB16 mRNA = test: Quantitative PCR of the P4 responsive gene ZBTB16 in T47D cells; type: cell-based, human; details: 100 μM, 24 h
[4] = target: T3, progesterone receptor (PR) (Homo sapiens, UniProt P06401); test: PRE-luciferase reporter assay in human endometrial stromal cells; type: cell-based; details: for dose-dependent activation of PRE-luciferase: HESC; for compound-induced PRE-luciferase in the presence of RU486: compound 20 μM with 1 μM RU486, HESC
T3 sequence (P06401 1-933): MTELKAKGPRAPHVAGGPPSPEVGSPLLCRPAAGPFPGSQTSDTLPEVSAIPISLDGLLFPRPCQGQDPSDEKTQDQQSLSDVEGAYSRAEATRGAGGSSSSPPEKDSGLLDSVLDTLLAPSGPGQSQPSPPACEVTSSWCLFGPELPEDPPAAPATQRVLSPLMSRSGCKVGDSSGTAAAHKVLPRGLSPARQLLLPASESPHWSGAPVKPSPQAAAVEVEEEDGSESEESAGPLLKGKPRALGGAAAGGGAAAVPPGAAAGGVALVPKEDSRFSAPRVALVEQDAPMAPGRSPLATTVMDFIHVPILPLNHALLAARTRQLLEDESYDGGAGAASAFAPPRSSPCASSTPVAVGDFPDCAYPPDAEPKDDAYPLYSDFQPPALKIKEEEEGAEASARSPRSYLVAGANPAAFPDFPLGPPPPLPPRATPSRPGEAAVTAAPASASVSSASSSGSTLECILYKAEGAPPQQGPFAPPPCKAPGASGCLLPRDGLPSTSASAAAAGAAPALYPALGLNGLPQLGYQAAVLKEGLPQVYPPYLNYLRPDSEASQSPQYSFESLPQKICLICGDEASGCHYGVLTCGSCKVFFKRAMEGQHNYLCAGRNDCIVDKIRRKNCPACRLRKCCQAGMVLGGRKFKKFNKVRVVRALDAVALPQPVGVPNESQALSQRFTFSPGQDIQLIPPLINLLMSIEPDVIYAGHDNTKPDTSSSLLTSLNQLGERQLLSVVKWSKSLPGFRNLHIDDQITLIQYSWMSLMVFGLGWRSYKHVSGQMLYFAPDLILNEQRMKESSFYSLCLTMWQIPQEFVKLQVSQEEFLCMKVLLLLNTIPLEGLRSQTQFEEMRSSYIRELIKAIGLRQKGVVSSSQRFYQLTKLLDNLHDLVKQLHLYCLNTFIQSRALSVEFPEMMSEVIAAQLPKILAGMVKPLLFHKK

prolactin (PRL) mRNA = test: Quantitative PCR of decidualization gene PRL in HESC; type: cell-based, human; details: 100 μM, 48 h, with E2 and 8-Br-cAMP
PRA and PRB protein = test: Western blot of PRA and PRB expression in T47D cells; type: cell-based, human; details: P4 1 μM, flavonoids 100 μM, 1.5 h or 16 h
ovarian cancer = details: kaempferol intake, human observational studies; cited from earlier work
T47D cells = test: Sulforhodamine B; type: cell-based
[5] = tested on: cannabinoid receptor 1 (CNR1) mRNA; test: Quantitative PCR of decidualization gene CNR1 in HESC; type: cell-based, human; details: 100 μM, 48 h, with E2 and 8-Br-cAMP
[6] = tested on: MPA-induced mammary tumors; details: rats; cited from earlier work

| PRE-luciferase Fold increase (10μM) ([1]; T47D cells) [fold] | dose-dependent activation of PRE-luciferase ([1]; T47D cells) | compound-induced PRE-luciferase activity in the presence of RU486 [1] | IC50 [2] [µM] | SMILES | CC50 at 24 h (Sulforhodamine B; T47D cells) [µM] | induction of ZBTB16 mRNA (ZBTB16 mRNA) | induction of PRL expression (prolactin (PRL) mRNA) | downregulation of PRA and PRB protein expression (PRA and PRB protein) | further results |
| --- | --- | --- | --- | --- | --- | --- | --- | --- | --- |
| 5.5 ± 1.8 | dose-dependently activated | significantly abrogate | 1.5 ± 0.4 | O=c1c(O)c(-c2ccc(O)cc2)oc2cc(O)cc(O)c12 [Kaempferol, kaempferol] | > 20 | significantly induced | induced PRL expression | not observed | concentration of highest PRE-luciferase activity from dose response curves ([1]; T47D cells): 7.5 µM; concentration above which PRE-luciferase activity started to decrease ([1]; likely due to cell death): > 10 µM; downregulation of P4-induced PRE-luciferase [3]: significantly downregulated; dose-dependent activation of PRE-luciferase [4]: dose-dependently activated; compound-induced PRE-luciferase in the presence of RU486 [4]: significantly inhibited; decrease of ovarian cancer incidence (ovarian cancer): 40% |
| 1.0 ± 0.1 | – | – | – | COc1ccc(-c2coc3cc(O)cc(O)c3c2=O)cc1 [Biochanin A, biochanin A] | – | – | – | – | IC50 ([2]; read-out: PR Binding IC50, pure compounds, purified PR): > 250 µM; CC50 (T47D cells): > 20 µM |
| 1.9± 0.4 | dose-dependently activated | significantly abrogate | 6.9 ± 1.8 | O=C1C[C@@H](c2ccc(O)cc2)Oc2cc(O)cc(O)c21 [Naringenin, naringenin] | > 20 | did not induce | induced PRL expression | not observed | PRE-luciferase activation versus solvent control ([1]; 20 μM, T47D cells): reached significance; induction of CNR1 expression [5]: did not induce CNR1 expression |
| 1.5 ± 0.6 | – | – | > 250 | COc1ccc(-c2coc3cc(O)ccc3c2=O)cc1 [Formononetin, formononetin] | > 20 | – | – | – | – |
| – | – | – | – | CC(=O)O[C@]1(C(C)=O)CC[C@H]2[C@@H]3C[C@H](C)C4=CC(=O)CC[C@]4(C)[C@H]3CC[C@@]21C [MPA, medroxyprogesterone acetate, reference compound] | – | – | – | – | PRE-luciferase activity compared with P4 ([1]; T47D cells, data not shown): comparable activity; dose-dependent activation of PRE-luciferase [4]: dose-dependently activated; compound-induced PRE-luciferase in the presence of RU486 [4]: significantly inhibited |
| 1.0 ± 0.4 | – | – | > 250 | O=c1c(-c2ccc(O)cc2)coc2cc(O)ccc12 [Daidzein, daidzein] | > 20 | – | – | – | – |
| – | – | – | – | O=c1cc(-c2ccc(O)cc2)oc2cc(O)cc(O)c12 [Apigenin, apigenin] | – | did not induce | induced PRL expression | – | CC50 at 24 h (Sulforhodamine B): > 20 µM; development of MPA-induced mammary tumors [6]: prevents the development |
| – | dose-dependently activated | significantly abrogate | – | CC(=O)[C@H]1CC[C@H]2[C@@H]3CCC4=CC(=O)CC[C@]4(C)[C@H]3CC[C@]12C [Progesterone, reference compound] | – | – | – | downregulation of PRB and more noticeably PRA | – |

| SMILES | PRE-luciferase Fold increase (10μM) ([1]; T47D cells) [fold] | dose-dependent activation of PRE-luciferase ([1]; T47D cells) | compound-induced PRE-luciferase activity in the presence of RU486 [1] | IC50 [2] [µM] | CC50 at 24 h (Sulforhodamine B; T47D cells) [µM] | induction of ZBTB16 mRNA (ZBTB16 mRNA) | induction of PRL expression (prolactin (PRL) mRNA) | downregulation of PRA and PRB protein expression (PRA and PRB protein) | further results |
| --- | --- | --- | --- | --- | --- | --- | --- | --- | --- |
| O=c1c(-c2ccc(O)cc2)coc2cc(O)cc(O)c12 [Genistein] | 2.2 ± 1.1 | – | – | > 250 | – | – | – | – | CC50 at 24 h (Sulforhodamine B): > 20 µM |
